Where a name gives a salt, the structure may show the parent alone.
Key:
anesthetized dogs = experiment: renal anesthetized dog screening protocol (renal vasodilator activity test, infusion); type: in vivo; parameters: renal blood flow / renal vascular resistance: dose or concentration left out as unconfirmed; conditions: for renal vasodilators: primary test period of the screening protocol
Description: Representative specific results are included in the examples.

[1] = bradycardic effect (heart rate; test not specified); conditions: in vivo
[2] = test system: dopamine-sensitive adenylate cyclase system; experiment: dopamine-sensitive adenylate cyclase system in vitro; type: biochemical
toad bladder = toad bladder anti-ADH assay
[3] = test system: angiotensin coverting enzyme; experiment: angiotensin converting enzyme inhibiting activity; type: in vivo; conditions: at 10 times its renally effective dose
[4] = test system: spontaneously hypertensive rats (SHR); experiment: spontaneously hypertensive rat test, diuretic naturetic assay; type: in vivo
Description: In this test, male, Okamato-Aoki strain, spontaneously hypertensive rats, aged 16-19 weeks, are fasted, then, the following afternoon, the first dose of test compound is adminstered, along with a 25 ml/kg p.o. load of normal saline. The animals are, then, placed in metabolism cages and urine collected for three hours for analysis. Indirect systolic blood pressure and heart rate are measured by a tail-cuff. An identical second dose of test compound is adminstered. After two hours, blood pressure and heart rate are again tested. The test compound is usually administered p.o. or i.p. in saline with 0.02% ascorbic acid.

[5] = accumulative effect at 300 dose, 2 anesthetized dogs
[6] = two anesthetized dogs, 3, 30 and 300
[7] = 30 µg/kg/min, 3 anesthetized dogs

For `O=C(O)CN1CCC[C@H]1C(=O)N[C@@H](Cc1ccccc1)C(=O)N1CCC[C@H]1C(=O)O` [Example 2 sulfate, N-carboxymethyl-L-prolyl-L-phenylalanyl-L-proline], the renal blood flow (anesthetized dogs; 30 and 300) was “increased renal blood flow”.
For `O=C(O)CN1CCCC1C(=O)NCC(=O)N1CCC[C@H]1C(=O)O` (stereo partly drawn) [N-carboxymethyl-propyl-glycyl-L-proline, reference compound], the renal vasodilators (anesthetized dogs) was “inactive”.
With `NCCCC[C@H](NC(=O)[C@@H]1CCCN1CC(=O)O)C(=O)N1CCC[C@H]1C(=O)O` [N-carboxymethyl-L-propyl-L-lysyl-L-proline, reference compound] the renal vasodilators (anesthetized dogs) was “inactive”.
In the case of `C[C@H](NC(=O)[C@@H]1CCCN1CCC(=O)O)C(=O)N1CCC[C@H]1C(=O)O` [Example 4, N-(2-carboxyethyl)-L-prolyl-L-alanyl-L-proline], the “decrease in renal vascular resistance” value (anesthetized dogs; [5]) is reported as 23% and the “increase in renal blood flow” value (anesthetized dogs; [5]) is reported as 34%.
In the case of `O=C(O)CN1CCC[C@H]1C(=O)NCCC(=O)N1CCC[C@H]1C(=O)O` [Example 3, N-carboxymethyl-L-prolyi-o-alanyl-L-proline sulfate], the bradycardic effect [1] is reported as “weak bradycardic effect”, the “stimulate or antagonize the dopamine-sensitive adenylate cyclase system” value [2] is reported as “did not stimulate or antagonize” and the “toad bladder anti-ADH assay activity” value (toad bladder) is reported as “nor was it active”. The “angiotensin coverting enzyme inhibiting activity” value [3] was “did not have angiotensin coverting enzyme inhibiting activity”, the ED15 (anesthetized dogs; Canis lupus familiaris, iv, anesthetized renal dog protocol, read-out: RVR-ED15) was 0.012 mg/kg and the renal blood flow (anesthetized dogs; [6]) was “increased renal blood flow”. The renal vascular resistance (anesthetized dogs; [6]) was “decreased renal vascular resistance”, the Urine ([4]; 25 mg/kg i.p., n=3, control 3) was 16 ml/rat and the “K^9” value ([4]; 25 mg/kg i.p., n=3, control 85.12) was 242.53. For the same compound, the “Na⊕” value ([4]; 25 mg/kg i.p., n=3, control 126.76) was 676.04 and the “Na^l, K° or urine excretion” value ([4]; 25 and 50 mg/kg i.p.) was “significant increase”.
For `C[C@H](NC(=O)[C@@H]1CCCN1CC(=O)O)C(=O)N1CCC[C@H]1C(=O)O` [Example 1 barium salt, N-carboxymethyl-L-propyl-L-alanyl-L-proline], the “decrease in renal vascular resistance” value (anesthetized dogs; [7]) was 15% and the “increase in renal blood flow” value (anesthetized dogs; [7]) was 21.7%.
With `CC(C(=O)O)N1CCC[C@H]1C(=O)NCCC(=O)N1CCC[C@H]1C(=O)O` (stereo partly drawn) [N-(1-carboxyethyl)-L-propyl-β-alanyl-L-proline, reference compound] the renal vasodilators (anesthetized dogs) was “inactive”.
For `O=C(O)CN1CCC[C@H]1C(=O)N[C@@H](Cc1ccccc1)C(=O)N1CCC[C@H]1C(=O)O` [Example 2 barium salt, N-carboxymethyl-L-prolyl-L-phenylalanyl-L-proline], the “activity within the parameters of anesthetized dog screening test” value (anesthetized dogs; dog, in vivo) was “not active”.

Reference: EP0080283B1, “N-carboxyalkylproline-containing tripeptides” (SMITHKLINE BECKMAN CORPORATION, priority 1981, dated 1983)
